≈ marks a conversion by molar mass, not a printed value.
Key:
M. abscessus = assay: microbe, parasite or virus in culture; assay type: cell-based, Mycobacterium abscessus; conditions: Mycobacteroides abscessus
M. conceptionense = assay: microbe, parasite or virus in culture; assay type: cell-based, Mycobacterium conceptionense; conditions: Mycolicibacterium senegalense
M. bovis = assay: microbe, parasite or virus in culture; assay type: cell-based; conditions: Mycobacterium tuberculosis variant bovis
M. massiliense = assay: microbe, parasite or virus in culture; assay type: cell-based, Mycobacterium massiliense; conditions: Mycobacteroides abscessus
M. szulgai = assay: microbe, parasite or virus in culture; assay type: cell-based; conditions: Mycobacterium szulgai
M. phocaicum = assay: microbe, parasite or virus in culture; assay type: cell-based, Mycobacterium phocaicum; conditions: Mycolicibacterium phocaicum
M. chitae = assay: microbe, parasite or virus in culture; assay type: cell-based, Mycobacterium chitae; conditions: Mycolicibacterium chitae
M. peregrinum = assay: microbe, parasite or virus in culture; assay type: cell-based, Mycobacterium peregrinum; conditions: Mycolicibacterium peregrinum
M. xenopi = assay: microbe, parasite or virus in culture; assay type: cell-based; conditions: Mycobacterium xenopi
M. arupense = assay: microbe, parasite or virus in culture; assay type: cell-based, Mycobacterium arupense; conditions: Mycolicibacter arupensis
M. aubagnense = assay: microbe, parasite or virus in culture; assay type: cell-based, Mycobacterium aubagnense; conditions: Mycolicibacterium aubagnense
M. intracellulare = assay: microbe, parasite or virus in culture; assay type: cell-based; conditions: Mycobacterium intracellulare
M. kansasii = assay: microbe, parasite or virus in culture; assay type: cell-based; conditions: Mycobacterium kansasii
Rhizopus oryzae = assay: Broth dilution MIC (CLSI); assay type: cell-based; conditions: Rhizopus arrhizus
Excerpt: (§1) Bacteria (Acinetobacter baumannii NCCP 14782, Citrobacter freundii NCCP 14766, Enterobacter aerogenes NCCP 14761, Escherichia coli NCCP 14762, Escherichia coli O157 NCCP 14541, Klebsiella pneumoniae NCCP 14764, Proteus mirabilis NCCP 14763, Proteus vulgaris NCCP 14765, Pseudomonas aeruginosa NCCP 14781, Salmonella Enteritidis NCCP 14771, Salmonella Paratyphi A NCCP 14759, Salmonella Typhimurium NCCP 16207, Serratia marcescens NCCP 14770, Shigella boydii NCCP 14745, Shigella dysenteriae NCCP 14746, Shigella flexneri NCCP 14744, Shigella sonnei NCCP 14773, Bacillus subtilis NCCP 11101, Corynebacterium diphtheriae NCCP 10353, Staphylococcus aureus MSSA NCCP 14780, Staphylococcus aureus MRSA NCCP 14769, Staphylococcus epidermidis NCCP 14768, Streptococcus pneumoniae NCCP 14774) and fungi (Aspergillus fumigatus NCCP 22454, Candida albicans NCCP 32557, Cryptococcus neoformans NCCP 32559, Microsporum canis NCCP 22454, Rhizopus oryzae NCCP 22458, Saccharomyces cerevisiae NCCP 32558, Trichophyton rubrum NCCP 22456) strains were obtained from the National Culture Collection for Pathogens (NCCP) (Chungbuk, Korea). The MIC of each agent was determined following the Clinical and Laboratory Standards Institute (CLSI).[40]

Salmonella Enteritidis = assay: Broth dilution MIC (CLSI); assay type: cell-based; conditions: Salmonella enterica, ENTERITIDIS
Excerpt: as §1

[1] = test system: Staphylococcus aureus, MRSA; assay: Broth dilution MIC (CLSI); assay type: cell-based
Excerpt: as §1

[2] = test system: Staphylococcus aureus, MSSA; assay: Broth dilution MIC (CLSI); assay type: cell-based
Excerpt: as §1

[3] = test system: Corynebacterium diphtheriae; assay: Broth dilution MIC (CLSI); assay type: cell-based
Excerpt: as §1

Cryptococcus neoformans = assay: Broth dilution MIC (CLSI); assay type: cell-based
Excerpt: as §1

Shigella sonnei = assay: Broth dilution MIC (CLSI); assay type: cell-based
Excerpt: as §1

Salmonella Paratyphi A = assay: Broth dilution MIC (CLSI); assay type: cell-based; conditions: Salmonella enterica, PARATYPHI
Excerpt: as §1

Proteus vulgaris = assay: Broth dilution MIC (CLSI); assay type: cell-based
Excerpt: as §1

Enterobacter aerogenes = assay: Broth dilution MIC (CLSI); assay type: cell-based; conditions: Klebsiella aerogenes
Excerpt: as §1

Shigella boydii = assay: Broth dilution MIC (CLSI); assay type: cell-based
Excerpt: as §1

Citrobacter freundii = assay: Broth dilution MIC (CLSI); assay type: cell-based
Excerpt: as §1

Pseudomonas aeruginosa = assay: Broth dilution MIC (CLSI); assay type: cell-based
Excerpt: as §1

Microsporum canis = assay: Broth dilution MIC (CLSI); assay type: cell-based
Excerpt: as §1

Salmonella Typhimurium = assay: Broth dilution MIC (CLSI); assay type: cell-based; conditions: Salmonella enterica, TYPHIMURIUM
Excerpt: as §1

M. smegmatis = assay: microbe, parasite or virus in culture; assay type: cell-based, Mycobacterium smegmatis; conditions: Mycolicibacterium smegmatis
M. goodie = assay: microbe, parasite or virus in culture; assay type: cell-based; conditions: Mycobacterium
M. phlei = assay: microbe, parasite or virus in culture; assay type: cell-based, Mycobacterium phlei; conditions: Mycolicibacterium phlei
M. kyorinense = assay: microbe, parasite or virus in culture; assay type: cell-based; conditions: Mycobacterium kyorinense
M. gordonae = assay: microbe, parasite or virus in culture; assay type: cell-based; conditions: Mycobacterium gordonae
M. fortuitum = assay: microbe, parasite or virus in culture; assay type: cell-based, Mycobacterium fortuitum; conditions: Mycolicibacterium fortuitum
M. marinum = assay: microbe, parasite or virus in culture; assay type: cell-based; conditions: Mycobacterium marinum
M. bolletii = assay: microbe, parasite or virus in culture; assay type: cell-based, Mycobacterium bolletii; conditions: Mycobacteroides abscessus
M. neoaurum = assay: microbe, parasite or virus in culture; assay type: cell-based, Mycobacterium neoaurum; conditions: Mycolicibacterium neoaurum
M. gilvum = assay: microbe, parasite or virus in culture; assay type: cell-based, Mycobacterium gilvum; conditions: Mycolicibacterium gilvum
[4] = test system: clinically isolated MDR, XDR, and TDR M. tuberculosis strains; assay: microbe, parasite or virus in culture; assay type: cell-based; conditions: Mycobacterium tuberculosis
M. marseiliense = assay: microbe, parasite or virus in culture; assay type: cell-based; conditions: Mycobacterium
M. heraklionease = assay: microbe, parasite or virus in culture; assay type: cell-based; conditions: Mycobacterium

Q: How did the MIC (M. abscessus) turn out when `CO[C@H]1/C=C/O[C@@]2(C)Oc3c(C)c(O)c4c(O)c(c(/C=N/N5CCN(C)CC5)c(O)c4c3C2=O)NC(=O)/C(C)=C\C=C\[C@H](C)[C@H](O)[C@@H](C)[C@@H](O)[C@@H](C)[C@H](OC(C)=O)[C@@H]1C` [RIF, rifampicin, reference compound] was run?
A: Its MIC is > 100 µg/mL.

Q: And the MIC (M. conceptionense)?
A: The MIC was 25 µg/mL (≈ 30.4 µM).

Q: And the MIC (M. bovis)?
A: The MIC was 0.1 µg/mL (≈ 0.122 µM).

Q: What about the MIC (M. massiliense) of the same compound?
A: Its MIC is 0.2 µg/mL (≈ 0.243 µM).

Q: And the MIC (M. szulgai)?
A: The MIC was < 0.1 µg/mL.

Q: What about the MIC (M. phocaicum) of the same compound?
A: Its MIC is 25 µg/mL (≈ 30.4 µM).

Q: What about the MIC (M. chitae) of the same compound?
A: The MIC was 6.3 µg/mL (≈ 7.66 µM).

Q: And the MIC (M. peregrinum)?
A: The MIC was 25 µg/mL (≈ 30.4 µM).

Q: And the MIC (M. xenopi)?
A: Its MIC is 0.2 µg/mL (≈ 0.243 µM).

Q: What about the MIC (M. arupense) of the same compound?
A: Its MIC is 0.1 µg/mL (≈ 0.122 µM).

Q: And the MIC (M. aubagnense)?
A: The MIC was 1.6 µg/mL (≈ 1.94 µM).

Q: What about the MIC (M. intracellulare) of the same compound?
A: The MIC was < 0.1 µg/mL.

Q: And the MIC (M. kansasii)?
A: Its MIC is < 0.1 µg/mL.

Q: And the MIC (Rhizopus oryzae)?
A: The MIC was > 100 µg/mL.

Q: And the MIC (Salmonella Enteritidis)?
A: Its MIC is 12.5 µg/mL (≈ 15.2 µM).

Q: And the MIC [1]?
A: The MIC was 0.05 µg/mL (≈ 0.0608 µM).

Q: And the MIC [2]?
A: The MIC was 0.05 µg/mL (≈ 0.0608 µM).

Q: And the MIC [3]?
A: Its MIC is 0.05 µg/mL (≈ 0.0608 µM).

Q: And the MIC (Cryptococcus neoformans)?
A: Its MIC is > 100 µg/mL.

Q: And the MIC (Shigella sonnei)?
A: The MIC was 3.1 µg/mL (≈ 3.77 µM).

Q: And the MIC (Salmonella Paratyphi A)?
A: The MIC was 12.5 µg/mL (≈ 15.2 µM).

Q: And the MIC (Proteus vulgaris)?
A: Its MIC is 6.3 µg/mL (≈ 7.66 µM).

Q: What about the MIC (Enterobacter aerogenes) of the same compound?
A: Its MIC is 6.3 µg/mL (≈ 7.66 µM).

Q: What about the MIC (Shigella boydii) of the same compound?
A: Its MIC is 0.4 µg/mL (≈ 0.486 µM).

Q: What about the MIC (Citrobacter freundii) of the same compound?
A: The MIC was 25 µg/mL (≈ 30.4 µM).

Q: And the MIC (Pseudomonas aeruginosa)?
A: The MIC was 25 µg/mL (≈ 30.4 µM).

Q: What about the MIC (Microsporum canis) of the same compound?
A: Its MIC is > 100 µg/mL.

Q: What about the MIC (Salmonella Typhimurium) of the same compound?
A: The MIC was 12.5 µg/mL (≈ 15.2 µM).

Q: And the MIC (M. smegmatis)?
A: Its MIC is 25 µg/mL (≈ 30.4 µM).

Q: What about the MIC (M. goodie) of the same compound?
A: Its MIC is 100 µg/mL (≈ 122 µM).

Q: And the MIC (M. phlei)?
A: Its MIC is 25 µg/mL (≈ 30.4 µM).

Q: And the MIC (M. kyorinense)?
A: The MIC was 50 µg/mL (≈ 60.8 µM).

Q: And the MIC (M. gordonae)?
A: The MIC was 3.1 µg/mL (≈ 3.77 µM).

Q: What about the MIC (M. fortuitum) of the same compound?
A: The MIC was 0.2 µg/mL (≈ 0.243 µM).

Q: And the MIC (M. marinum)?
A: Its MIC is < 0.1 µg/mL.

Q: What about the MIC (M. bolletii) of the same compound?
A: The MIC was > 100 µg/mL.

Q: What about the MIC (M. neoaurum) of the same compound?
A: The MIC was 0.2 µg/mL (≈ 0.243 µM).

Q: And the MIC (M. gilvum)?
A: The MIC was 0.2 µg/mL (≈ 0.243 µM).

Q: And the MIC ([4]; TDR-1)?
A: Its MIC is > 100 µg/mL.

Q: What about the MIC ([4]; TDR-2) of the same compound?
A: The MIC was > 100 µg/mL.

Q: What about the MIC ([4]; TDR-3) of the same compound?
A: The MIC was > 100 µg/mL.

Q: What about the MIC (M. marseiliense) of the same compound?
A: The MIC was > 100 µg/mL.

Q: And the MIC (M. heraklionease)?
A: Its MIC is 0.2 µg/mL (≈ 0.243 µM).

From paper PMC9154192 (PLoS Biology, 2022)
